Here are results for 6 compounds from patent US11464738B2, “Ionic liquid-based nanoemulsion formulation for the efficient delivery of hydrophilic and hydrophobic therapeutic agents” (Wisconsin Alumni Research Foundation, priority 2018, dated 2022).

The conditions of series [1]: literature value; cited from earlier work.
The subject of another series is zebrafish (Danio rerio). Kind of series: Embryo-larval zebrafish developmental toxicity assay. It counts as in vivo. The note with it: for in vivo toxicity in zebrafish (in words): developmental toxicity assay. On the procedure: In Vivo Developmental Toxicity Study. An embryo-larval zebrafish (Danio rerio) model was used to evaluate the toxicity of the novel dicationic cholinium-based ionic liquid. The following protocol was taken from previously published protocol, analyzing the toxicity of a novel triphilic polymers for use as a component in a nanoemulsion.^1 Zebrafish of the AB strain were obtained from Dr. Michael Taylor at the University of Wisconsin-Madison School of Pharmacy, where the fish were cultured until sexual maturation. Zebrafish were maintained in a light/dark cycle of 14:10 h at 28.5° C. in egg water (0.03% Instant Ocean, Blacksburg, Va., USA). The adult fish were fed Anemia nauplii twice daily. Embryos were obtained from adult fish with a ratio of 1:2 for female to male. Six breeding groups were placed in separate spawning aquariums, equipped with a mesh bottom to prevent the eggs from being cannibalized. Crossing was induced in the morning. After one hour, eggs free of macroscopically discernible symptoms of infection and disease were collected, rinsed with egg water, and transferred into Petri dishes until chemical exposure. The embryo-larval toxicity assay was subsequently carried out. 8 fertilized eggs at 2 hours post fertilization (hpf) stage were added to a 24-well plate. Each well was filled with eggs and contained 600 μL of egg water. Six concentrations plus two controls (negative and positive) were plated. For analysis of [DC-7][2Br], sodium bis(trifluoromethylsulfonyl)imide, and [DC-7][2NTf2] containing nanoemulsion the concentrations analyzed were 1 mM, 333 μM, 111 μM, 37 μM, 12.3 μM, and 4.1 μM. 1.5 mL of [DC-7][2NTf2] was added to a 15 mL conical centrifuge tube followed by 1.5 mL of egg water. The sample was allowed to sit for 6 days prior to use. Each day, the sample was sonicated at 40° C. for 6 hours and then allowed to remain at room temperature for 18 hours. After 6 days, the sample was centrifuged at 2000 rpm for 5 minutes to ensure complete sedimentation of the ionic liquid. 1.2 mL of egg water was removed and served as the stock solution. This served as the highest concentration sample. Integration of the internal standard and [DC-7][2NTf2] in the QNMR sample allowed for quantitation of the concentration of [DC-7][2NTf2] present in the stock solution used for the zebrafish viability assay. The concentrations analyzed for [DC-7][2NTf2] sample were 7.11 mM, 3.56 mM, 1.78 mM, 889 μM, 444 μM, and 222 μM.
The plates were covered and incubated at 28.5° C. in a light/dark cycle of 14:10 throughout the 96 hpf exposure period. The observations of zebrafish development were made directly in the well using a stereomicroscope (Nikon SMZ18) every 24 hours. The end points that were selected to monitor the effects of [DC-7][2Br], sodium bis(trifluoromethylsulfonyl)imide, [DC-7][2NTf2] saturated water solution and nanoemulsion included mortality, spontaneous movement, hatching success, pericardial edema, and curved body axis. Embryos and larvae were considered dead when no heartbeat was observed. The number of hatched embryos and a cumulative mortality tally were recorded every 24 h after 2 hpf. At 96 hpf, following the final observations, representative larvae for [DC-7][2Br] and [DC-7][2NTf2] saturated egg water were anesthetized with 0.4% tricaine mesylate solution and mounted on Petri dishes using low melting point agarose. These larvae were then photographed using a high-definition color microscope camera (Nikon DSFi2). Finally, all larvae used for the analysis were euthanized following.

Series [2] can be described thus: UV/vis spectroscopy of the aggregation state of AmB. It counts as physicochemical. The note with it: for aggregation state of AmB in the medium (in words): AmB solubilized in the ionic liquid or ionic liquid mixture named. On the procedure:
Measuring absorbance of Amphotericin B (AmB) at distinct wavelengths using UV/vis spectroscopy provides insight into its degree of self-aggregation. Absorption spectra were obtained on a Varian Cary 100Bio UV-vis spectrometer (Varian, Palto Alto, Calif.) at 25° C. using a quartz coverslip with a 0.1 mm pathlength (Starna Cells, Inc., Atascadero, Calif.) or a 1 mm pathlength quartz cuvette (Starna Cells, Inc., Atascadero, Calif.). Absorbance was measured from 300 nm to 500 nm. Samples were prepared by direct addition of AmB powder to neat ionic liquids. Ionic liquids solid at room temperature were first melted using a water bath at 60° C. prior to addition of AmB powder. After addition of solid drug, (1) 100 μL of methanol was then added to the IL mixture and the mixture was stirred at room temperature for 1 hour. (2) The drug/IL mixture was then placed under rotary evaporation in a water bath with at a temperature of 60° C. for 1 hour. (3) The drug/IL mixture was then placed under high vacuum for 1 hour. (4) The drug/IL mixture was then allowed to stir for 1 hour. This process (steps 1-4) was repeated until all drug visibly was solubilized. The drug/IL mixture was then placed under rotary evaporation at 60° C. for an additional hour and then under high vacuum for 24 hours prior to use to ensure removal of all methanol. Samples were shielded from light prior to analysis. Neat ionic liquids served as the baseline for AmB samples solubilized in ionic liquid. Dilution samples were performed using 1×PBS for dilution. Analysis of AmB nanoemulsion required a nanoemulsion without drug as the baseline to correct for inherent scattering of the prepared nanoemulsion.

The nature of series [3]: Quantitative 19F NMR (QNMR) water-solubility of hydrophobic ionic liquids. Format: physicochemical. Conditions: saturated D2O; for solubility at 6 days: 25 °C, water, thermodynamic from solid, read-out: Ionic Liquid Concentration in D2O (water-solubility). On the procedure:
Example 12A: Quantitative ^19F NMR spectroscopy (QNMR) for determination of concentration of hydrophobic ionic liquids in a water-solution for comparison of water-solubility of hydrophobic ionic liquids.
^19F NMR spectra was measured using a Varian UI 500 MHz spectrometer equipped with a Nalorac Quad Nucleus DD probe (qn6121, 5 mm). The internal temperature of the NMR spectrometer was maintained at 25° C. Sodium trifluoroacetate was used as an internal standard was employed in order to determine the concentration of [DC-7][2NTf2]. The internal standard was prepared in D2O and the stock solution was allowed to sonicate at 30° C. for 4 hours prior to use in order to ensure complete dissolution of sodium trifluoroacetate. Prior to quantitative study, the T1 value of both [DC-7][2NTf2] and sodium trifluoroacetate were determined using an inversion recover experiment acquired with 12 independent quadratically spaced variable (tau) values (values from 0.06944-10). The T1 value was calculated in order to ensure that both signals fully relaxed between pulses. The following parameters were employed for acquisition of T1 spectra: 500 MHz; spectra width, 107962.2 Hz; acquisition time, 1.004 s; number of points, 216688; relaxation delay, 18.996 s; number of transients, 1; 90° pulse width, 17.1 μs. X-Win32 software was used to calculate the T1 value and processing included a line broadening of 1 Hz. The T1 value of the sodium trifluoroacetate and [DC-7][2NTf2] was determined to be 2.76±0.172 seconds and 2.69±0.0885 seconds, respectively. After determination of T1, the QNMR study was completed on an optimized spectrum. […] The acquired spectrum has a signal to noise ratio of 4700, which exceeded the desired 3000 needed for quantitation. […] 0.5 mL of D2O was removed and then subsequently analyzed. Integration of the internal standard and [DC-7][2NTf2] allowed for quantitation of the concentration of [DC-7][2NTf2] present in the stock solution used for the zebrafish viability assay.

Series [4] is described as follows: Viscosity (Brookfield viscometer). It counts as physicochemical. Conditions: 30.2 ° C. On the procedure:
A Brookfield viscometer (Model RVDV-1) was used to analyze the ionic liquids at 30° C. The spindle used on the instrument was CPA-41Z. After addition of 2 mL of sample to the instrument cup, the cup was warmed until all IL samples were completely transparent before beginning the measurement. The RPM was adjusted per sample in order to ensure the percent torque applied per sample was in a consistent range.

Entries after “also recorded” stand apart in the source; their conditions may differ.

With `C[C@@H]1[C@H](O)[C@@H](C)/C=C/C=C/C=C/C=C/C=C/C=C/C=C/[C@H](O[C@@H]2O[C@H](C)[C@@H](O)[C@H](N)[C@@H]2O)C[C@@H]2O[C@](O)(C[C@@H](O)C[C@@H](O)[C@H](O)CC[C@@H](O)C[C@@H](O)CC(=O)O[C@H]1C)C[C@H](O)[C@H]2C(=O)O` [AmB, Amphotericin B], the water solubility in series [1] was below 1.0 µg/mL.

For the compound `O=C(O)C(F)(F)C(F)(F)C(F)(F)C(F)(F)C(F)(F)C(F)(F)C(F)(F)F` [PFOA, perfluorooctanoic acid, reference compound], in the series on zebrafish (Danio rerio) (96 hours post-fertilization, concentration not stated (FIG. 64)), the “zebrafish malformations, microscope images (in words)” value was “spinal curvature”.

On to `CCCCCC(=O)[O-].C[N+](C)(C)CCO` [[Chol][Hex], cholinium hexanoate], for which, in series [2], the “aggregation state of AmB in the medium (in words)” value is listed as “solely the monomeric form”. Moreover, the “aggregation state of AmB upon dilution (in words)” value in series [2] (dilution with phosphate-buffered saline / saline) is on record as “shifts from primarily the monomeric to the aggregated form; also recorded: concentration dependent aggregation; also recorded: shifted from monomeric to aggregated”.

As to `C[N+](C)(CCO)CCCCCCC[N+](C)(C)CCO` [[DC-7][2NTf2]], the “aggregation state of AmB in the medium (in words)” value in series [2] is “mixture of the aggregated form and monomeric form; also recorded: mixture of monomeric and aggregated AmB”. Further, the solubility at 6 days in series [3] worked out at 10.7 mM. The “Ionic Liquid Concentration in D2O (water-solubility)” value in series [3] (25° C.) is 6 mM. Besides, in the series on zebrafish (Danio rerio) (889 μM, 96 hours post fertilization), the “zebrafish malformations (in words)” value is recorded as “no malformations”. For the same compound, in the series with zebrafish (Danio rerio) (889 μM, dilution of saturated water solution, 96 hours post fertilization), the “zebrafish survival rate / viability” value is reported as 100%. Also, the “in vivo toxicity in zebrafish (in words)” value in the series on zebrafish (Danio rerio) (96 hours post fertilization) is listed as “does not exhibit toxicity; also recorded: minimal toxicity”; in the series with zebrafish (Danio rerio) (96 hours post fertilization, listed as [CDIL-7][NTf2]), “extremely low”.

For the compound `C[N+](C)(CCO)CCOCCOCC[N+](C)(C)CCO` [[DC-ether][2NTf2]], the solubility at 6 days in series [3] turned out to be 13 mM. In series [4], this compound registered a Viscosity of 891.5 cP.

With `O=S(=O)([N-]S(=O)(=O)C(F)(F)F)C(F)(F)F.[Na+]` [sodium bis(trifluoromethylsulfonyl)imide, reference compound], in the series with zebrafish (Danio rerio) (111 μM, 96 hours post fertilization), the zebrafish survival rate is recorded as 87%. The “in vivo toxicity in zebrafish (in words)” value in the series with zebrafish (Danio rerio) (96 hours post fertilization) is reported as “minimal toxicity”.
